Test results reported in patent publication US20200190077A1, “NEUROPROTECTIVE HYDRAZIDES” (priority 2018, published 2020).

Key:
[1] = test system: CSM14.1 neuronal cells; assay: Rescue of CSM14.1 neurons from thapsigargin-induced cell death (ATPlite); type: cell-based; details: Rattus norvegicus, Neuron; 15 μM thapsigargin, 20 h; 10 μM compound, 2 h preincubation; cellular ATP content; read-out: % CSM14.1 Cell Viability after treatment with 15 μM TG in Presence of 10 μM compound
Text: Ability of Compounds to Rescue CSM14.1 Neurons from Thapsigargin-Induced Cell Death.
To assess the ability of the compounds to rescue neurons from ER stress-induced cell death, the rat striatal neuroprogenitor cell line CSM14.1 was used. Endoplasmic reticulum (ER) stress has been established as the major cause of neuronal loss in stroke, ischemia, and neurodegeneration (Tajiri, S.; Oyadomari, S.; Yano, S.; Morioka, M.; Gotoh, T.; Hamada, J. I.; Ushio, Y.; Mori, M. Cell Death Differ. 2004, 11, 403-415; Kohno, K.; Higuchi, T.; Ohta, S.; Kumon, Y.; Sakaki, S. Neurosci. Lett. 1997, 224, 17-20; ladecola, C.; Zhang, F.; Casey, R.; Nagayama, M.; Ross, M. E. J. Neurosci. 1997, 17, 9157-9164). Thus, we used the known ER stress-causing agent thapsigargin (TG) to model the compromised state in vitro. TG causes 100% cell death in most cases, and compounds were assessed for neuroprotection by measuring cell viability when dosed at 10 μM. CSM14.1 cells were recovered from cultures by trypsinization and plated in 96-well plates and incubated overnight at 32° C. 5 μl of test compound was added to achieve a final concentration of […]. Salubrinal and DMSO without compound were used as positive and negative controls, respectively. After 2 h of preincubation, TG-containing DMEM was added to give a final concentration of 15 μM and incubated for an additional 20 h. Cell viability was assessed by a cellular ATP content assay (ATPlite, PerkinElmer Life Sciences).

[2] = test system: SUMOylation of His-RanGap (SUMO-E1 (SAE), SUMO-E2 (UBC9), GST-SUMO); assay: HTRF assay measuring increase in SUMOylation of His-RanGap; type: biochemical; details: His-RanGap substrate; HTRF 665/620 ratio; 30 min at room temperature; triplicate
Experimental: Assay Measuring Increase in SUMOylation of his-RanGap.
We utilized an HTRF assay containing SUMO-E1 (SAE), SUMO-E2 (UBC9), GST-SUMO and His-RanGap, a known SUMO substrate, as well as the respective fluorescent antibodies. The assay was run in 1536-well plate format and the selected activators were chosen based on their ability to increase the FRET signal over a baseline level. In 1536-well white plates, 2 μl of phosphate buffered saline (assay buffer) was dispensed into columns 1 and 2, and 2 μl of Mixture 1 (37.5 nM E1 and 100 nM His-RanGap-1) in assay buffer (50 mM Tris-HCl pH 7.4, 0.3 mM DTT, 10 mM MgCl2, 0.005% Tween-20), was dispensed into columns 3-48. Using a pintool, 70 nl of 2 mM compounds in DMSO was dispensed to columns 5-48 and 70 nl of DMSO was dispensed to columns 1-4. Using the Thermo Scientific MultiDrop Combi, 2 μL of Mixture 2 (20 mM ATP, 12.5 nM E2 and 30 nM GST-SUMO in buffer) was dispensed to all wells and incubated for 30 min. at room temperature followed by 1 μl of 500 mM KF. Plates were read on a PheraStar in a HTRF mode (Ex: 337 nm; Em: 620/665 nm). The ratio of fluorescence 665 over 620 was utilized as a readout of the assay. Increase in SUMOylation was calculated by comparison to baseline level. Measurements were done in triplicate.

| SMILES | viability at 10 µM [1] [%] | % INCREASE IN SUMOylation over endogenous baseline level [2] |
| --- | --- | --- |
| Cc1ccc2sc(NNC(=O)c3cc(=O)c4ccccc4o3)nc2c1C [Compound B1, N′-(4,5-dimethylbenzo[d]thiazol-2-yl)-4-oxo-4H-chromene-2-carbohydrazide] | 40 to 50 | C (C = 31%-40% increase) |
| Cc1cc(C)c2nc(NNC(=O)c3cc(=O)c4ccccc4o3)sc2c1 [Compound B2, N′-(4,6-Dimethylbenzo[d]thiazol-2-yl)-4-oxo-4H-chromene-2-carbohydrazide] | 51 to 60 | C (C = 31%-40% increase) |
| COc1cccc2sc(NNC(=O)C3COc4ccccc4O3)nc12 (stereo not drawn) [Compound B3, N′-(4-methoxybenzo[d]thiazol-2-yl)-2,3-dihydrobenzo[b][1,4]dioxine-2-carbohydrazide] | 51 to 60 | A (A = 10%-20% increase) |
